Experimental data reported in ChEMBL document CHEMBL3272252, “A novel prostaglandin endoperoxide mimic, prostaglandin F2alpha acetal” (J Med Chem, 1977).
Values after ≈ are worked out from the molar mass of the structure shown. Blank lines part the entries; values can stand above or below the molecule they belong to. Active and inactive are the calls of the source. No cut-off for these calls is given here.

How the values were obtained:
[1] = species on record: Canis lupus familiaris; experiment: (§1) Vasocontractile activity in dog lateral saphenous vein assessed as smooth muscle contractile response; assay type: functional
[2] = system: Platelet; experiment: Induction of reversible platelet aggregation in human citrated platelet-rich plasma at 0.7 to 4 ug/ml; assay type: functional
[3] = system: Platelet; experiment: Induction of platelet aggregation in human citrated platelet-rich plasma in presence of 10 ug/ml PG synthase inhibitor indomethacin; assay type: functional
[4] = system: Gerbillinae; experiment: Vasocontractile activity in gerbil colon assessed as smooth muscle contractile response; assay type: functional, tissue-based; conditions: Muscle tissue
[5] = species on record: Oryctolagus cuniculus; experiment: Vasocontractile activity in rabbit aorta assessed as smooth muscle contractile response; assay type: functional, tissue-based; conditions: Muscle tissue
[6] = system: Platelet; experiment: Induction of platelet aggregation in human citrated platelet-rich plasma assessed as internal contractile response with granules being squeezed into cell centre surrounded closely by microtubules and contractile microfilaments by transmission electron microscopy; assay type: functional
[7] = system: Platelet; experiment: Induction of irreversible platelet aggregation in human citrated platelet-rich plasma at 5 to 10 ug/ml; assay type: functional
[8] = Vasocontractile activity in dog lateral saphenous vein assessed as smooth muscle contractile response in presence of PG synthase inhibitor indomethacin; assay type: functional, tissue-based; conditions: Canis lupus familiaris
[9] = as §1; assay type: functional; conditions: Canis lupus familiaris, read-out: ED50 (the source's name)
[10] = Vasocontractile activity in rabbit aorta assessed as smooth muscle contractile response relative to PGE2; assay type: functional, Oryctolagus cuniculus, Muscle tissue
[11] = Retardation factor of the compound using CHCl3-EtOAc-HOAc at ratio of 50:50:1 as solvent system by thin layer chromatography; assay type: physicochemical
[12] = Vasocontractile activity in dog lateral saphenous vein assessed as smooth muscle contractile response relative to PGF2alpha; assay type: functional, Canis lupus familiaris
[13] = Stability of the compound in Krebs solution at pH 8.2 at 4 degC after 1 week; assay type: physicochemical; conditions: buffer, pH 8.2, 168 h
[14] = Vasocontractile activity in gerbil colon assessed as smooth muscle contractile response relative to PGF2alpha; assay type: functional, Gerbillinae, Muscle tissue
[15] = system: Platelet; experiment: Induction of irreversible platelet aggregation in human citrated platelet-rich plasma at 100 to 250 ng/ml; assay type: functional

Structure (SMILES): CCCCC[C@H](O)/C=C/[C@@H]1[C@@H](C/C=C\CCCC(=O)O)[C@@H]2C[C@H]1OC(C)O2 (stereo in doubt; 1a) [listing 1 of 2 here]
- Activity [1]: Dose-dependent effect
- Activity [2]: Active
- Activity [3]: Active
- Activity [4]: Dose-dependent effect
- Activity [5]: Dose-dependent effect
- Activity [6]: Active
- Activity [7]: Active
- Activity [8]: Active

- EC50 [9]: 5.8 ng/mL (≈ 0.0152 µM)
- Rf [11]: 0.53
- Stability [13]: Stable
Structure (SMILES): CCCCC[C@H](O)/C=C/[C@@H]1[C@@H](C/C=C\CCCC(=O)O)[C@@H]2C[C@H]1OC(C)O2 (stereo in doubt; 1a) [listing 2 of 2 here]
- Activity [10]: 19%
- Activity [12]: 32%
- Activity [14]: 0.12%

- Rf [11]: 0.49
Structure (SMILES): CCCCC[C@H](O)/C=C/[C@@H]1[C@@H](C/C=C\CCCC(=O)O)[C@@H]2C[C@H]1OC(C)O2 (mixture of isomers)

Structure (SMILES): CCCCC[C@@H](/C=C/[C@@H]1[C@@H](C/C=C\CCCC(=O)O)[C@H]2C[C@H]1OO2)OO
- Activity [10]: 80%
- Activity [15]: Active
- Activity [14]: 1.5%
